Assay [1] concerns the target T1, human A1 AR (Homo sapiens, UniProt P30542).
T1 sequence (P30542 1-326): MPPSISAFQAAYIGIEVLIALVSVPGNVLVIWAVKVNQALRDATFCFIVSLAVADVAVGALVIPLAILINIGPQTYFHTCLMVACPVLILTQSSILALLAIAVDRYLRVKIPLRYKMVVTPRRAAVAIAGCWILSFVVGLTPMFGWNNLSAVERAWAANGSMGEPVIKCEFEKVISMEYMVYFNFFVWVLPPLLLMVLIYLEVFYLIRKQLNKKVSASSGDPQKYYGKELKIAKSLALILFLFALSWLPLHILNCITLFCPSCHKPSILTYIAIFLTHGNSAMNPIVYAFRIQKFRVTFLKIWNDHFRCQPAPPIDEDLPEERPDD
The assay is described as follows: Radioligand competition binding (125I-ABA) to human A1 AR in CHO K1 cell membranes. Particulars: for Ki: Ki from competition binding, 125I-ABA, CHO K1 cell membranes; for A1/A2A: selectivity ratio A1 over A2A.
Description: (§1) Sf9 cells were cultured in Grace's medium supplemented with 10% fetal bovine serum, 2.5 μg/ml amphotericin B and 50 μg/ml gentamycin in an atmosphere of 50% N2/50% O2. […] Infected cells were harvested 3 days post-infection and washed twice in insect PBS (PBS pH 6.3). Cells were then resuspended in lysis buffer (20 mM HEPES pH 7.5, 150 mM NaCl, 3 mM MgCl2, 1 mM β-mercaptoethanol (BME), 5 μg/mL leupeptin, 5 μg/mL pepstatin A, 1 μg/mL aprotinin, and 0.1 mM PMSF) and snap frozen for storage at −80° C. Cells were thawed on ice, brought to 30 mL total volume in lysis buffer, and burst by N2 cavitation (600 psi for 20 minutes). A low-speed centrifugation was performed to remove any unlysed cells (1000×g for 10 minutes), followed by a high-speed centrifugation (17,000×g for 30 minutes). The pellet from the final centrifugation was homogenized in buffer containing 20 mM HEPES pH 8, 100 mM NaCl, 1% glycerol, 2 μg/mL leupeptin, 2 μg/mL pepstatin A, 2 μg/mL Aprotinin, 0.1 mM PMSF, and 10 μM GDP using a small glass homogenizer followed by passage through a 26 gauge needle. Membranes were aliquoted, snap frozen in liquid N2, and stored at −80° C.
(§2) Binding experiments were performed in triplicate with 5 μg (A2A) or 25 μg (A1 and A3) membrane protein in a total volume of 0.1 mL HE buffer (20 mM HEPES and 1 mM EDTA) with 1 U/mL adenosine deaminase and 5 mM MgCl2 with or without 50 μM GTPγS. Membranes were incubated with radioligands at room temperature for three hours (for agonists) or two hours (for antagonists) in Millipore Multiscreene® 96-well GF/C filter plates and assays were terminated by rapid filtration on a cell harvester (Brandel, Gaithersburg, Md.) followed by 4×150 μl washes over 30 seconds with ice cold 10 mM Tris-HCl, pH 7.4, 10 mM MgCl2.

In assay [2] the target is recombinant human A2A receptors (Homo sapiens, UniProt P29274). Kind of assay: Radioligand competition binding to recombinant human A2A receptors in Sf9 cell membranes. Particulars: Ki from competition binding, Sf9 cell membranes.
Description: as §1, §2
Assay [3] concerns the target T2, A3 AR (Homo sapiens, UniProt P0DMS8).
T2 sequence (P0DMS8 1-318): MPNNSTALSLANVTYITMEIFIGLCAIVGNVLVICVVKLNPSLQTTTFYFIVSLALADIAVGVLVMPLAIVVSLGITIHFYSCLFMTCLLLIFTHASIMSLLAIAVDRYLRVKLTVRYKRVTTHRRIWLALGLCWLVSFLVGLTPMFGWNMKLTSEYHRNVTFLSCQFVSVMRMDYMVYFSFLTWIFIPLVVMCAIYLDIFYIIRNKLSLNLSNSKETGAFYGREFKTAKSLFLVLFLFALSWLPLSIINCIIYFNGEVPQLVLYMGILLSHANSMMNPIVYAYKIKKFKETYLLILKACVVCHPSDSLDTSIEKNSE
Kind of assay: Radioligand competition binding (125I-ABA) to human A3 AR in HEK 293 cell membranes. Particulars: for Ki: Ki from competition binding, 125I-ABA, HEK 293 cell membranes; for A3/A2A: selectivity ratio A3 over A2A.

The subject of assay [4] is human neutrophils. The assay is described as follows: Human neutrophil oxidative activity, luminol-enhanced chemiluminescence. In kind it is cell-based. Particulars: for EC50: Homo sapiens, Neutrophil, read-out: PMN oxid (-log EC50) (converted); for EC50 / PMN oxid (-log EC50): human neutrophil experiment w/o Rolipram; for PMN oxid + roli (-log EC50): human neutrophil experiment w/Rolipram. The method in brief: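 Purified human neutrophils (5–10×10^5/ml) pre-incubated 30 min at 37 °C with the A2A agonist, ± rolipram and ± TNF-α (1 U/ml), then stimulated with fMLP (1 μM final). Peak luminol-enhanced chemiluminescence expressed as percent of no-agonist control. EC50 from three donors.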

Read-outs that look alike come from different tables or passages of the source.

Chain of recombinant human A2A receptors (P29274 whole entry): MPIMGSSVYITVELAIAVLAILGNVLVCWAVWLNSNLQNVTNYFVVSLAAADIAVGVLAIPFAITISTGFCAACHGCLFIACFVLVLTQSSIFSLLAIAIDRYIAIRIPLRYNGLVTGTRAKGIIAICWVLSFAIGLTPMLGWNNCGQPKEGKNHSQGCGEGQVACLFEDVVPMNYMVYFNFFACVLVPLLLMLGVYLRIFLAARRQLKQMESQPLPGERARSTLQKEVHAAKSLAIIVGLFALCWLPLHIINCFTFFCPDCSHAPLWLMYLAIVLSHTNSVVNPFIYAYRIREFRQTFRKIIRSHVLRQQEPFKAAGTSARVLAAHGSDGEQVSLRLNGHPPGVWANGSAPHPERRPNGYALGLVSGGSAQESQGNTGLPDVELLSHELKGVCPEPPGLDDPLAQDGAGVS

With `CCNC(=O)[C@H]1O[C@@H](n2cnc3c(N)nc(C#CCC4CCN(C(=O)OC)CC4)nc32)C(O)C1O` (stereo in doubt) [JR-4007, 4-{3-[6-Amino-9-(5-ethylcarbamoyl-3,4-dihydroxytetrahydrofuran-2-yl)-9H-purin-2-yl]-prop-2-ynyl}-piperidine-1-carboxylic acid methyl ester], the Ki in assay [1] (A1 ± SEM) was 0.0346 ± 0.0014 µM; in assay [2] (A2A ± SEM), 0.00097 ± 0.00033 µM; in assay [3] (A3 ± SEM), 0.0652 µM. Further, the A1/A2A in assay [1] stood at 35.7. For the same compound, in assay [3], the A3/A2A is listed as 67.2. For the same compound, the half-maximal effective concentration (EC50) in assay [4] is 0.0017 µM.
Turning to `CCNC(=O)[C@H]1O[C@@H](n2cnc3c(N)nc(C#CCC4CCN(C(=O)OC(C)C)CC4)nc32)C(O)C1O` (stereo in doubt) [JR-4009, 4-{3-[6-Amino-9-(5-ethylcarbamoyl-3,4-dihydroxytetrahydrofuran-2-yl)-9H-purin-2-yl]-prop-2-ynyl}-piperidine-1-carboxylic acid isopropyl ester], the Ki in assay [1] (A1 ± SEM) is 0.167 µM; in assay [2] (A2A ± SEM) it was 0.00143 ± 0.00023 µM; in assay [3] (A3 ± SEM), 0.086 µM. For the same compound, in assay [1], the A1/A2A is 116.4. Moreover, the A3/A2A in assay [3] was 60.1. In assay [4], the concentration giving a half-maximal response (EC50) is 0.00355 µM.
Take `CCNC(=O)[C@H]1O[C@@H](n2cnc3c(N)nc(C#CCC4CCN(C(=O)OCC(C)C)CC4)nc32)C(O)C1O` (stereo in doubt) [JR-4011, 4-{3-[6-Amino-9-(5-ethylcarbamoyl-3,4-dihydroxytetrahydrofuran-2-yl)-9H-purin-2-yl]-prop-2-ynyl}-piperidine-1-carboxylic acid isobutyl ester]: in assay [1], the A1/A2A was found to be 0.0. Besides, the Ki in assay [2] (A2A ± SEM) is 0.00061 ± 6e-05 µM; in assay [3] (A3 ± SEM), 0.0717 µM. The A3/A2A in assay [3] is 117.5. The EC50 in assay [4] was 0.00347 µM.
For the compound `CCNC(=O)[C@H]1O[C@@H](n2cnc3c(N)nc(C#CC[C@H]4CC[C@H](COC(=O)OC)CC4)nc32)C(O)C1O` (stereo partly drawn) [ATL214, N-Ethyl 2-{3-[trans-4-(methoxycarbonyloxymethyl)-cyclohexyl]-1-propyn-1-yl}adenosine-5′-uronamide], the Ki in assay [1] (A1 ± SEM) was found to be 0.1 µM; in assay [2] (A2A ± SEM), 0.0008 µM; in assay [3] (A3 ± SEM), 0.1 µM. For the same compound, in assay [1], the A1/A2A is given as 125. The A3/A2A in assay [3] stood at 125. In assay [4], the EC50 is 0.002 µM.
With `COC(=O)C1CCC(CC#Cc2nc(N)c3ncn(C4OC(CO)C(O)C4O)c3n2)CC1` (stereo not shown) [JR-2145], the Ki amounted to 0.0283 ± 0.0073 µM in assay [1] (read-out: A1 ± SEM), 0.0007 ± 0.00016 µM in assay [2] (read-out: A2A ± SEM) and 0.101 ± 0.022 µM in assay [3] (read-out: A3 ± SEM). Besides, the A1/A2A in assay [1] turned out to be 42.2. The A3/A2A in assay [3] amounted to 150.7. Also, the “PMN oxid + roli (-log EC50)” value in assay [4] was determined as 8.57. In addition, the “PMN oxid (-log EC50)” value in assay [4] came to 7.19.
As to `CC(=O)OCC1CCC(CC#Cc2nc(N)c3ncn(C4OC(CO)C(O)C4O)c3n2)CC1` (stereo not shown) [JR-2147], the Ki in assay [1] (read-out: A1 ± SEM) turned out to be 0.0175 ± 0.0052 µM; in assay [2] (read-out: A2A ± SEM) it was 0.0009 ± 0.00038 µM; in assay [3] (read-out: A3 ± SEM), 0.089 ± 0.021 µM. Besides, in assay [1], the A1/A2A turned out to be 19.0. Moreover, the A3/A2A in assay [3] was 96.7. Besides, in assay [4], the “PMN oxid + roli (-log EC50)” value was 8.57. Further, the “PMN oxid (-log EC50)” value in assay [4] was found to be 7.13.
In the case of `CCNC(=O)C1OC(n2cnc3c(N)nc(C#CC4(O)CCCCC4)nc32)C(O)C1O` (stereo not shown) [JR-3089], the Ki in assay [1] (read-out: A1 ± SEM) came to 0.0071 ± 0.0011 µM; in assay [2] (read-out: A2A ± SEM), 0.0007 ± 5e-05 µM; in assay [3] (read-out: A3 ± SEM), 0.0044 ± 0.011 µM. Also, the A1/A2A in assay [1] was 10.8. In assay [3], the A3/A2A came to 6.7. The “PMN oxid + roli (-log EC50)” value in assay [4] worked out at 9.9. The “PMN oxid (-log EC50)” value in assay [4] was found to be 9.14.
Take `CCNC(=O)[C@H]1O[C@@H](n2cnc3c(N)nc(C#CC4(O)CCCC(C)C4)nc32)C(O)C1O` (stereo partly shown) [JR-3179, 5-[6-Amino-2-(1-hydroxy-3-methyl-cyclohexylethynyl)-purin-9-yl]-3,4-dihydroxytetrahydrofuran-2-carboxylic acid ethylamide]: the Ki in assay [1] (A1 ± SEM) worked out at 0.0085 ± 0.0003 µM; in assay [2] (A2A ± SEM) it was 0.0004 ± 5e-05 µM; in assay [3] (A3 ± SEM) it was 0.0126 ± 0.0036 µM. Further, the A1/A2A in assay [1] is reported as 19.3. In assay [3], the A3/A2A amounted to 28.6. The half-maximal effective concentration (EC50) in assay [4] was 0.000661 µM. The “PMN oxid + roli (-log EC50)” value in assay [4] is 10.07.
With `CCNC(=O)C1OC(n2cnc3c(N)nc(C#CC4(N)CCCCC4)nc32)C(O)C1O` (stereo not shown) [JR-3205], the results for the Ki in assay [1] (read-out: A1 ± SEM), in assay [2] (read-out: A2A ± SEM) and in assay [3] (read-out: A3 ± SEM) were 0.0142 ± 0.00108 µM, 0.0034 ± 0.0003 µM and 0.0316 ± 0.0265 µM, respectively. Also, the A1/A2A in assay [1] is 4.2. For the same compound, the A3/A2A in assay [3] is listed as 9.3. For the same compound, in assay [4], the “PMN oxid + roli (-log EC50)” value came out at 8.08. Further, the “PMN oxid (-log EC50)” value in assay [4] worked out at 7.22.
Take `CCNC(=O)[C@H]1O[C@@H](n2cnc3c(N)nc(C#C[C@@]4(O)CCC[C@@H](C)C4)nc32)C(O)C1O` (stereo partly shown) [JR-3221, 5-[6-Amino-2-(1-hydroxy-3-methylcyclobexylethynyl)purin-9-yl]-3,4-dihydroxytetrahydrofuran-2-carboxylic acid ethylamide]: the Ki in assay [1] (A1 ± SEM) is 0.0195 ± 0.00012 µM; in assay [2] (A2A ± SEM) it was 0.00508 ± 0.00081 µM; in assay [3] (A3 ± SEM), 0.009 ± 0.0055 µM. Also, in assay [1], the A1/A2A was 3.8. In addition, in assay [3], the A3/A2A worked out at 1.8. Further, the EC50 in assay [4] was 0.0501 µM. Further, the “PMN oxid + roli (-log EC50)” value in assay [4] turned out to be 8.21.
For `CCNC(=O)[C@H]1O[C@@H](n2cnc3c(N)nc(C#CCN4CCCCC4C(=O)OC)nc32)C(O)C1O` (stereo partly shown) [JR-3253, 1-{3-[6-Amino-9-(5-ethylcarbamoyl-3,4-dihydroxytetrahydrofuran-2-yl)-9H-purin-2-yl]-prop-2-ynyl}-piperidine-2-carboxylic acid methyl ester], the values for the Ki in assay [1] (A1 ± SEM), in assay [2] (A2A ± SEM) and in assay [3] (A3 ± SEM) were 0.0138 ± 0.0005 µM, 0.00329 ± 0.00049 µM and 0.0313 ± 0.0093 µM, respectively. Moreover, the A1/A2A in assay [1] is given as 4.2. For the same compound, the A3/A2A in assay [3] was determined as 9.5. Also, the concentration for a half-maximal effect (EC50) in assay [4] is 0.0437 µM. In assay [4], the “PMN oxid + roli (-log EC50)” value is 8.42.
As to `CCNC(=O)C1OC(n2cnc3c(N)nc(C#CCC4CCNCC4)nc32)C(O)C1O` (stereo not shown) [JR-3261], the results for the Ki in assay [1] (read-out: A1 ± SEM), in assay [2] (read-out: A2A ± SEM) and in assay [3] (read-out: A3 ± SEM) were 0.0473 ± 0.0116 µM, 0.0057 ± 0.0018 µM and 0.0867 ± 0.00375 µM, respectively. Also, in assay [1], the A1/A2A turned out to be 8.3. The A3/A2A in assay [3] was found to be 15.2. For the same compound, in assay [4], the “PMN oxid + roli (-log EC50)” value stood at 7.6. Besides, the “PMN oxid (-log EC50)” value in assay [4] is 6.4.

Values taken from patent publication US7737127B2, “2-propynyl adenosine analogs having A2A agonist activity and compositions thereof” (University of Virginia Patent Foundation, priority 2001, dated 2010).
